From BindingDB's records for doi:10.3109/14756366.2013.765413 (Karunya University, 2014)

Assays:
[1] = molecular target: T1, DNA topoisomerase I/type IB small subunit (Leishmania donovani, UniProt E9B7X3+E9BRC0); experiment: Stimultaneous Relaxation Assay; settings: pH 7.5
T1 sequence (E9B7X3 whole entry): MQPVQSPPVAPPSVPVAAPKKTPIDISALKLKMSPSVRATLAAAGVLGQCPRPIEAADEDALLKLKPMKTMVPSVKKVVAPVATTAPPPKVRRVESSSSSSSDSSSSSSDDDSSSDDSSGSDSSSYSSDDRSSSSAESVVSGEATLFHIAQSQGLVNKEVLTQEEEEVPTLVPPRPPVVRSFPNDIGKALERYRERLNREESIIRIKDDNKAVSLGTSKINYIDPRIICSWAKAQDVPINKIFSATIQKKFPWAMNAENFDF
T1 sequence (E9BRC0 whole entry): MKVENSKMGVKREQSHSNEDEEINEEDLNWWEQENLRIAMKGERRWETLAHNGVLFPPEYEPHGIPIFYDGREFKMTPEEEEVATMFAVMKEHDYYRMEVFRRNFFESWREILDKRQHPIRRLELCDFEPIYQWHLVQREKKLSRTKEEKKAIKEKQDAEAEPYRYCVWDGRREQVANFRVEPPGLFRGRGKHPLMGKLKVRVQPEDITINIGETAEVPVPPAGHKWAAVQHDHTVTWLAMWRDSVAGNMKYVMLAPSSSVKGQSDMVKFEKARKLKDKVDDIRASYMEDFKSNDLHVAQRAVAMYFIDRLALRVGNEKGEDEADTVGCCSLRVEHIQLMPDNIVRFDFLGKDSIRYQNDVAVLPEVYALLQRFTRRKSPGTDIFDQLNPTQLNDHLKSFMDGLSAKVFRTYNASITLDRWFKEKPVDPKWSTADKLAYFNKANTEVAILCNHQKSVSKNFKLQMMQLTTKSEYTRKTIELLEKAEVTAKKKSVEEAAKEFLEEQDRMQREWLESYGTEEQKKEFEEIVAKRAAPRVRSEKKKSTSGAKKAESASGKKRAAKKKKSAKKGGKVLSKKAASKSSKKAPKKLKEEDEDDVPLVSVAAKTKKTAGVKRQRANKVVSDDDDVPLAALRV
Method: (§1) In simultaneous relaxation assay, CPT concentrations were 50 and 100 μM, whereas concentration of compounds were 50, 100 and 200 μM. Relaxation assay was carried out as described previously with LdTOPILS serially diluted in the relaxation buffer (25mM Tris-HCl pH 7.5, 5% glycerol, 0.5mM DTT, 10mM MgCl2, 2.5mM EDTA and […]) supercoiled pBluescript (SK ) DNA and 50mM KCl. The amount of supercoiled monomer DNA band fluorescence after ethidium bromide (EtBr) ([…]) staining was quantitated by using GEL Doc 2000 from Biorad (Hercules, CA, USA).

[2] = molecular target: T1, DNA topoisomerase I/type IB small subunit; experiment: Preincubation Relaxation Assay; settings: pH 7.5
Method: as §1, with “In the preincubation” for “In simultaneous relaxation”, “whereas various concentrations” for “whereas concentration”, “were 25, 50 and” for “were 50,”, “100” for “100 and 200”, “μM. LdTOP1LS was preincubated with compounds 3a-d at different concentrations for 5 min at 37 °Cbefore the addition of substrate DNA.” for “μM.”

SMILES | IC50 [1] | IC50 [2]
O=C1C(O)=C(C(C2=C(O)C(=O)c3ccccc3C2=O)c2ccccc2)C(=O)c2ccccc21 [Bi-lawsone analog, 3a] | 51 µM | 16 µM
CN(C)c1ccc(C(C2=C(O)C(=O)c3ccccc3C2=O)C2=C(O)C(=O)c3ccccc3C2=O)cc1 [Bi-lawsone analog, 3b] | 37.5 µM | 
COc1cc(C(C2=C(O)C(=O)c3ccccc3C2=O)C2=C(O)C(=O)c3ccccc3C2=O)ccc1O [Bi-lawsone analog, 3c] |  | 14 µM
O=C1C(O)=C(C(C2=C(O)C(=O)c3ccccc3C2=O)c2ccc(O)cc2)C(=O)c2ccccc21 [Bi-lawsone analog, 3d] | 70 µM | 13 µM
